These results are taken from ChEMBL document CHEMBL1201862, “PubChem BioAssay data set” (2004).

Calls of active or inactive are those of the source.

What is called AC50 is the concentration at which the activity in the assay is half-maximal. For orientation: EC50 means the concentration at which the effect is half-maximal.

Experiment [1] has as its target Sphingosine 1-phosphate receptor 1 (Homo sapiens, UniProt P21453). The experiment is classed as functional.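 Also: Tango beta-arrestin reporter U2OS cells stimulated with S1P near its EC80; inhibitor potency meaning antagonism of receptor activation by the natural agonist.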
Experiment [2] addresses Caspase-7 (Homo sapiens, UniProt P55210). Briefly: caspase-7 enzyme inhibition, selectivity check – biochemical, DEVD-R110 fluorescence, cherry-pick, selectivity assay for caspase-6 inhibitor project, dose response (AID 743295). It counts as functional.
Experiment [3] in a line: luciferase reporter signal suppression in cells – H4 neuroglioma cells, luminescence, dose response (AID 1990). The experiment is classed as functional, cell-based. For orientation: Reporter assays use an easily measured gene product as a stand-in for the process of interest.
Experiment [4] deals with BJ. Briefly: BJ-TERT fibroblast viability loss – cell-based, RAS-independent, luminescence, dose response (AID 1933). It counts as functional. The conditions noted are these: Homo sapiens.
Experiment [5] has as its target G-protein coupled receptor 55 (Homo sapiens, UniProt Q9Y2T6). Briefly: inhibition of LPI-stimulated GPR55 beta-arrestin translocation – imaging, U2OS, beta-arrestin-GFP, LPI agonist, primary screen (AID 2013).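 Also: antagonist potency measured as reduced agonist-driven arrestin aggregation.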 It counts as functional.
In experiment [6] the target is Mothers against decapentaplegic homolog 3 (Homo sapiens, UniProt P84022). Briefly: inhibitors of SMAD-driven TGF-beta signaling – dose response (AID 715). The experiment is classed as functional.
The subject of experiment [7] is BJ. Put plainly: BJ-TERT-LT-ST fibroblast viability loss – cell-based, RAS-independent, luminescence, dose response (AID 1935).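 Also: BJ fibroblasts immortalized with TERT plus LT and ST oncogenes.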 The experiment is classed as functional. The conditions noted are these: Homo sapiens.
Experiment [8] relates to Streptococcus. Briefly: GAS UMAA2166 growth inhibition – luminescence, BacTiterGlo, counter-screen for streptokinase expression inhibitor project, dose response (AID 1915).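 Also: potency for reduction of bacterial viability or growth.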 The experiment is classed as functional, organism-based. (A counterscreen serves to expose hits that act by an unwanted route or on another target.)
Experiment [9] is described as follows: IC50 of Artemis nuclease activity blockers – biochemical, fluorescence intensity, dose response (AID 720701).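 Also: Artemis endonuclease enzyme.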 The experiment is classed as functional.
The target of experiment [10] is Histone-lysine N-methyltransferase NSD2 (Homo sapiens, UniProt O96028). It counts as biochemical.
For experiment [11], the target named is T1, Type-1 angiotensin II receptor (Homo sapiens, UniProt P30556).
T1 sequence (P30556 whole entry): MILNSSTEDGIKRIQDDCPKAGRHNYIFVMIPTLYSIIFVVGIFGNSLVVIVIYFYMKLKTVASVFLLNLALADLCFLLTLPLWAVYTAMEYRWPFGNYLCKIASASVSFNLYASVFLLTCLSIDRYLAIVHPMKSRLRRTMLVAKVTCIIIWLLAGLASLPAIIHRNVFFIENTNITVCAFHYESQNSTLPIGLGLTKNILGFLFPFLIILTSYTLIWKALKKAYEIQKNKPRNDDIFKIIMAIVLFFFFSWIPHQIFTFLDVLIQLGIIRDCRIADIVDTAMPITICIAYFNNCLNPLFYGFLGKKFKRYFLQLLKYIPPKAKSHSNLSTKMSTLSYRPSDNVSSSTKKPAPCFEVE
Briefly: agonist activity at AGTR1 – cell-based, uHTS hits, selectivity assay for APJ receptor agonist project, dose response (AID 488865).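 Also: beta-arrestin recruitment to AT1 measured by enzyme fragment complementation luminescence.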 It counts as functional.

The nature of experiment [12]: MIN6 cell viability loss – mouse insulinoma, cytotoxicity control, dose response (AID 2122).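 Also: confirmatory high-throughput counterscreen run to flag cytotoxic compounds; mouse MIN-6 beta cells carrying an insulin promoter eGFP reporter.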 The experiment is classed as functional.
The nature of experiment [13]: fluconazole-exposed Candida albicans growth modulators – fluorescence, retest, confirmation (AID 2467). It counts as functional, cell-based.
The nature of experiment [14]: cells. The experiment is classed as functional, cell-based.
Experiment [15] concerns HEK293. Put plainly: HEK293T cell viability loss, resazurin readout – resazurin fluorescence, cytotoxicity control for NF-kB activator project, SAR follow-up (AID 493251). The experiment is classed as functional, cell-based.
Experiment [16] relates to Jurkat. Briefly: SAR Analysis of small molecule inhibitors of T-cell specific antigen receptor-induced NF-kB activation in a Jurkat cell line using a luminescence assay. [Related pubchem assays (depositor defined):AID435003, AID435012, AID465]. The experiment is classed as functional, cell-based. The conditions noted are these: Homo sapiens.
Experiment [17] has as its target ATP-dependent molecular chaperone HSP82 (Candida albicans (strain WO-1) (Yeast), UniProt C4YTQ8). Put plainly: steroid-induced GRE reporter decrease in yeast – S. cerevisiae, luminescence, Hsp90 inhibitor project, dose response (AID 2400).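 Also: beta-galactosidase luminescence from glucocorticoid response element reporter as proxy for Hsp90 function; inhibitor potency where signal loss means Hsp90 inhibition.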 The experiment is classed as functional, cell-based.
Experiment [18] has as its target Voltage-gated N-type calcium channel alpha-1B subunit/Amyloid beta A4 precursor protein-binding family A member 1 (Homo sapiens, UniProt Q00975+Q02410). It counts as protein assay.
The target in experiment [19] is T2, Calpain-2 catalytic subunit (Sus scrofa, UniProt P43367).
T2 sequence (P43367 whole entry): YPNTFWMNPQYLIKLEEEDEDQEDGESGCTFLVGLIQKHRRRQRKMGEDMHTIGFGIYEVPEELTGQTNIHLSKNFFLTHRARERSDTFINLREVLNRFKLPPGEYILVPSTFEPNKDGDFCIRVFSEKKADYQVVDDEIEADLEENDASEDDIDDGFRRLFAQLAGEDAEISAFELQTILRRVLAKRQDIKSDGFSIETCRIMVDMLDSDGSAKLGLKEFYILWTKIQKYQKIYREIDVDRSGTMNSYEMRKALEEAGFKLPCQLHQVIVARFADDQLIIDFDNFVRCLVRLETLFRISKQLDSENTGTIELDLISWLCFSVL
Briefly: m-calpain protease blockers, concentration series – biochemical, fluorogenic peptide substrate, dose response (AID 1420). It counts as functional.

Experiment [20] has as its target Small ubiquitin-related modifier 2 (Homo sapiens, UniProt P61956). Put plainly: disruption of SUMO2 interaction with SIM peptide – biochemical, fluorescence polarization, uHTS hits, selectivity assay for SUMO1 interaction inhibitor project, dose response (AID 624385). The experiment is classed as functional. Particulars: read-out: IC50_Mean. (Fluorescence polarisation rises when a labelled molecule tumbles more slowly, as on binding a larger partner.)

Small ubiquitin-related modifier 2, sequence (P61956 whole entry): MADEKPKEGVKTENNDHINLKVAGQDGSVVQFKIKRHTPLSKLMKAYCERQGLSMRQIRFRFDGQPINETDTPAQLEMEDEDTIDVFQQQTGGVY
Caspase-7, sequence (P55210 24-198 limits assumed): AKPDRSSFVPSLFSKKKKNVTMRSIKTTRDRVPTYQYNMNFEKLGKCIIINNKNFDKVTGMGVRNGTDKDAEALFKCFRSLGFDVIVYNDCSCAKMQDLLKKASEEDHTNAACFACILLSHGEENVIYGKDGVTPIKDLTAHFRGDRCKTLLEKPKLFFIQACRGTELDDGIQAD
Caspase-7, sequence (P55210 207-303 limits assumed): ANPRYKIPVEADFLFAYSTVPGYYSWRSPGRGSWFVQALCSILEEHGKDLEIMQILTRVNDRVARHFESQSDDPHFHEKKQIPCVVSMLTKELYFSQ
ATP-dependent molecular chaperone HSP82, sequence (C4YTQ8 whole entry): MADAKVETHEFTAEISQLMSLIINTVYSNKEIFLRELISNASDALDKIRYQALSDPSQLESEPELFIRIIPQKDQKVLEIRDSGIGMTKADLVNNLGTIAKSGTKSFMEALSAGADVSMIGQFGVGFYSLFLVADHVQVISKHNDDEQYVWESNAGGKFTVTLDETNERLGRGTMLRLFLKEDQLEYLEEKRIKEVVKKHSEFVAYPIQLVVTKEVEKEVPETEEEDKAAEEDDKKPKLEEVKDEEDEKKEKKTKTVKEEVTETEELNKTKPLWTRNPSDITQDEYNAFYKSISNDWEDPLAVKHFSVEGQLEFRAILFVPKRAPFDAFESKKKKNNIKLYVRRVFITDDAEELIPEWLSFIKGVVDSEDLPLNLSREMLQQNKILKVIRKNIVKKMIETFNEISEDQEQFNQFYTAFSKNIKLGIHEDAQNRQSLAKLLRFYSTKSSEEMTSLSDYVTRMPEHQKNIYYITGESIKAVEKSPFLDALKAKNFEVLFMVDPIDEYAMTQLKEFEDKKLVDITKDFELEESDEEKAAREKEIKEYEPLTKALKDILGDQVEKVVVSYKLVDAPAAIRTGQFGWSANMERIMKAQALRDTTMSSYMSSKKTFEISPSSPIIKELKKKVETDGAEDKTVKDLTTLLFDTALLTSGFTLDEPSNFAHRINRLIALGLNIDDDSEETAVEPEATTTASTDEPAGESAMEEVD
G-protein coupled receptor 55, sequence (Q9Y2T6 whole entry): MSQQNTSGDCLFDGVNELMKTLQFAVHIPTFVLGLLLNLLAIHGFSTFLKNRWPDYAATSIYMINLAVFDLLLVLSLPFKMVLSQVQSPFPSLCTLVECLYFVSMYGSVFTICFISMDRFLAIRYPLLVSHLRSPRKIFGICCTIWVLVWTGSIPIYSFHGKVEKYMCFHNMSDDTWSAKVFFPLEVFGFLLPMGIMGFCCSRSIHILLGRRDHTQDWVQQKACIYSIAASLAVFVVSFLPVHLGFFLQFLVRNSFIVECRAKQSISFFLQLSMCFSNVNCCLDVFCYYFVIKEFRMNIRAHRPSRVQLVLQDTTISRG
Sphingosine 1-phosphate receptor 1, sequence (P21453 whole entry): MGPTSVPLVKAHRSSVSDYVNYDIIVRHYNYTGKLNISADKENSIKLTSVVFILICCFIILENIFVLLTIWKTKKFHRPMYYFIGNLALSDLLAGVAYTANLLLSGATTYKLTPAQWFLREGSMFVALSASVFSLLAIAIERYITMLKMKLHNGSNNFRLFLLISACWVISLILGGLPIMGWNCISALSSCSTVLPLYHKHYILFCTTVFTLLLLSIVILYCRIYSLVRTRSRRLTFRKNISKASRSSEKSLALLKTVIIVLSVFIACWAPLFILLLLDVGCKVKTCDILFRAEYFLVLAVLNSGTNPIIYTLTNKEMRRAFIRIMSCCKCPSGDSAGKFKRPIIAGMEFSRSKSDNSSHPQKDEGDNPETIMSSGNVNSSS
Mothers against decapentaplegic homolog 3, sequence (P84022 whole entry): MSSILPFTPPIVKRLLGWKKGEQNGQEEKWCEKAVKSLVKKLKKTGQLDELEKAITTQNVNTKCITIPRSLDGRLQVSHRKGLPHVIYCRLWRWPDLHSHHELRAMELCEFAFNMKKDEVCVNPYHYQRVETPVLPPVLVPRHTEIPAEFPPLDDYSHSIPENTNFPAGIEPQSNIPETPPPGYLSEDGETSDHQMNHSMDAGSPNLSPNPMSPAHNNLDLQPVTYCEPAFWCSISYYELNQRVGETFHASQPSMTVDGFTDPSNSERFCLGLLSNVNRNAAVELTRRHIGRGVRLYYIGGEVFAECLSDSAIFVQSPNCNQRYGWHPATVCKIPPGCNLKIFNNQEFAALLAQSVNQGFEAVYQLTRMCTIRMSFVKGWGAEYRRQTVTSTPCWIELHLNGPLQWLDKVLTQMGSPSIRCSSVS
Histone-lysine N-methyltransferase NSD2, sequence (O96028 whole entry): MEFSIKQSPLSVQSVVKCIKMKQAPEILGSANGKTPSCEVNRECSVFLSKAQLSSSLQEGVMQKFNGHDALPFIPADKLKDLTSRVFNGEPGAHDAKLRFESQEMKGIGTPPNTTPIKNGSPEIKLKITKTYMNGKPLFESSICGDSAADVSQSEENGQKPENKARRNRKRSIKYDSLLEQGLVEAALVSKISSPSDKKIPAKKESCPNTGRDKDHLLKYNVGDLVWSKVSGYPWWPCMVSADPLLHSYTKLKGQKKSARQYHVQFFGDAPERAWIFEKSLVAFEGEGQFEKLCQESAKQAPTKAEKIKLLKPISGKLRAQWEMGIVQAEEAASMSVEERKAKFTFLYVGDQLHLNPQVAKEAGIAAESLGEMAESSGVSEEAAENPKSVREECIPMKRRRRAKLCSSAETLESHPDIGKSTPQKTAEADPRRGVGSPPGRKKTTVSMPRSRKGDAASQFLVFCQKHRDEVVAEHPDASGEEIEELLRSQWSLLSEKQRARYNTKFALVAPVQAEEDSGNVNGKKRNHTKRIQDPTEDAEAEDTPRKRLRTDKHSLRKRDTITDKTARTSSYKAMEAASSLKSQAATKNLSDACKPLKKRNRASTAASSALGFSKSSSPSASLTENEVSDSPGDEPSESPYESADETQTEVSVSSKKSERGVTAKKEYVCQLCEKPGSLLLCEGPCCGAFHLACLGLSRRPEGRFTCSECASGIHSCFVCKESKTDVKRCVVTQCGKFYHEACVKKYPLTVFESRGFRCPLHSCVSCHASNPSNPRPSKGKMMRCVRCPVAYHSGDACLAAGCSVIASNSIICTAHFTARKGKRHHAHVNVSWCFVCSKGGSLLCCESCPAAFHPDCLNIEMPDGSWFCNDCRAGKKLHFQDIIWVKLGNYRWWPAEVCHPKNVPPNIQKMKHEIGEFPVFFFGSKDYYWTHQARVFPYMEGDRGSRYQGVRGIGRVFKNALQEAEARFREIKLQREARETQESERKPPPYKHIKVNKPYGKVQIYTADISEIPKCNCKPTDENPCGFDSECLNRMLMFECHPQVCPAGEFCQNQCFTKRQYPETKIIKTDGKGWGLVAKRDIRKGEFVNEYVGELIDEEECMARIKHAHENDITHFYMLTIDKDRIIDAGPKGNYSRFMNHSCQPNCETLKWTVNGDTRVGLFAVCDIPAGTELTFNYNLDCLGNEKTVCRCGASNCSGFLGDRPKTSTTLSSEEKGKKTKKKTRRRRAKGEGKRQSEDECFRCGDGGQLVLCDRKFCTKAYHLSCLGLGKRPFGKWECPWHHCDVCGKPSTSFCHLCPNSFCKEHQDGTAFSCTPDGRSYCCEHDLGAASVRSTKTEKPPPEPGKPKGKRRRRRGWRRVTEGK

On to `COC(CNC(=O)c1ccc2c3c(onc13)-c1ccccc1C2=O)OC`, for which the IC50 in [1] is on record as 15.1 µM (not active).
As to `COc1ccc(OC)c(Nc2cc3ccccc3c(O)n2)c1`, the AC50 in experiment [2] was 5.9 µM (active).
Consider `Nc1ccc2c(c1)C(=O)C(=O)c1ccccc1-2`, for which the EC50 is > 120 µM (not active) in experiment [3], 2.58 µM (inconclusive) in experiment [4], 3.12 µM (inconclusive) in experiment [7] and 4.95 µM (active) in experiment [8]. Further, the IC50 in [5] was 1.36 µM (active); in experiment [6], 9.89 µM (active); in experiment [9], < 0.63 µM (active). In addition, in [10], the AC50 is 0.273 µM (active).
Take `Cc1ccc2nc(/C(C#N)=C\c3ccc([N+](=O)[O-])o3)[nH]c2c1`: the EC50 in experiment [11] was > 100 µM (inactive).
Regarding `CCCC(=O)NC(c1ccccc1OC)c1ccc2cccnc2c1O` (stereo unspecified), the IC50 in [12] was 1.91 µM (active); in [15] (Homo sapiens, HEK293), 29.6 µM (inactive); in experiment [15] (hek293), 41.2 µM (inactive); in experiment [16], 3.82 µM (active). In addition, the EC50 was 0.476 µM (active) in experiment [13], > 350 µM (not active) in experiment [14] and 25.9 µM (active) in experiment [17].
For the compound `COc1cc(-c2ccc(Nc3ccccc3C(=O)O)c(OC)c2)ccc1Nc1ccccc1C(=O)O`, the IC50 in experiment [18] was 30 µM (active); in experiment [19], 2.87 µM (not active); in experiment [20], 2.34 µM (active).
